Source: article PMC12819154, “High-throughput peptide-centric local stability assay extends protein–ligand identification to membrane proteins, tissues and bacteria” (Nature Structural & Molecular Biology, 2025)

Legend:
Type in all cases: biochemical
GuaC = target: T1, GuaC (Escherichia coli, UniProt P60560); assay: HT-PELSA limited trypsin proteolysis MS, dose-response; settings: desalted E. coli lysate, Mg2+ (10 mM MgCl2 added), 25 °C, 30 min; allosteric
T1 construct: endogenous full-length protein in desalted E. coli lysate
T1 sequence (P60560 1-347): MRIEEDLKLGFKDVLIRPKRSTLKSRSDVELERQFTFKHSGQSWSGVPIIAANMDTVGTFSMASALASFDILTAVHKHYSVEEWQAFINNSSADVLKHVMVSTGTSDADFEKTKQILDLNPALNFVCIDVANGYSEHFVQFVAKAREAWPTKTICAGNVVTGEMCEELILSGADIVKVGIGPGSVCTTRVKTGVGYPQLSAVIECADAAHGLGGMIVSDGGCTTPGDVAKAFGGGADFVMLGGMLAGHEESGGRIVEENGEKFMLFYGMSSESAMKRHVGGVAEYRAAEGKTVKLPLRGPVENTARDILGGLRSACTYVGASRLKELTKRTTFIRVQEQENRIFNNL

α subunit Prkaa2 of Ampk = target: T2, α subunit Prkaa2 of Ampk (Mus musculus, UniProt Q8BRK8); assay: as above; settings: mouse heart lysate in PBS, 25 °C, 30 min, 0.2 nM-20 μM
T2 construct: endogenous catalytic subunit of AMPK in mouse heart lysate

Csn1ke = target: T3, Csn1ke (Mus musculus, UniProt Q9JMK2); assay: as above; settings: mouse heart lysate in PBS, 25 °C, 30 min, 0.2 nM-20 μM
T3 construct: gene Csnk1e; endogenous protein in mouse heart lysate; printed Csn1ke read as Csnk1e
T3 sequence (Q9JMK2 1-416): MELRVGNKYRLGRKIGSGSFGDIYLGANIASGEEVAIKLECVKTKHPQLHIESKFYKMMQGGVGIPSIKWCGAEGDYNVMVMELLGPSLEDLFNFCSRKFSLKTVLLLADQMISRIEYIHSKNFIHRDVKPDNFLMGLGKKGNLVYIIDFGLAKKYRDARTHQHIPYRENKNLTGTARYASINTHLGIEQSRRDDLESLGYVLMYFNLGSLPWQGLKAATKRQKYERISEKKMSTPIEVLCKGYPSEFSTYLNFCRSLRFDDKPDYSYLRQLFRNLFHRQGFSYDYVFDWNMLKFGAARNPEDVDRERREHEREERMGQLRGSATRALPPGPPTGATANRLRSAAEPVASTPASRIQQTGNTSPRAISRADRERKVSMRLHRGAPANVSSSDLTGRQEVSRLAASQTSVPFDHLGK

pbpG = target: T4, pbpG (Escherichia coli, UniProt P0AFI5); assay: HT-PELSA limited trypsin proteolysis MS, single concentration; settings: crude E. coli lysate, 10 μM ampicillin, 25 °C, 30 min
T4 construct: endogenous protein in crude E. coli lysate
T4 sequence (P0AFI5 26-310): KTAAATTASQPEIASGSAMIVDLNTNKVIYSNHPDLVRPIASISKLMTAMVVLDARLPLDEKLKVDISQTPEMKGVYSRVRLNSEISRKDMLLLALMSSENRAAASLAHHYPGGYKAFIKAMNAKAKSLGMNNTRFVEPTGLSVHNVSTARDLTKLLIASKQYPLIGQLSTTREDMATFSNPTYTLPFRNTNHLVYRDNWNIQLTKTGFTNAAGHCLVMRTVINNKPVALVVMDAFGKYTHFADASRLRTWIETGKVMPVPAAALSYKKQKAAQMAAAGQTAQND

dacB = target: T5, dacB (Escherichia coli, UniProt P24228); assay: as above; settings: crude E. coli lysate, 10 μM ampicillin, 25 °C, 30 min
T5 construct: endogenous protein in crude E. coli lysate

mrcB = target: T6, mrcB (Escherichia coli, UniProt P02919); assay: as above; settings: crude E. coli lysate, 10 μM ampicillin, 25 °C, 30 min; C-terminal transpeptidase domain
T6 construct: endogenous membrane protein in crude E. coli lysate
T6 sequence (P02919 1-844): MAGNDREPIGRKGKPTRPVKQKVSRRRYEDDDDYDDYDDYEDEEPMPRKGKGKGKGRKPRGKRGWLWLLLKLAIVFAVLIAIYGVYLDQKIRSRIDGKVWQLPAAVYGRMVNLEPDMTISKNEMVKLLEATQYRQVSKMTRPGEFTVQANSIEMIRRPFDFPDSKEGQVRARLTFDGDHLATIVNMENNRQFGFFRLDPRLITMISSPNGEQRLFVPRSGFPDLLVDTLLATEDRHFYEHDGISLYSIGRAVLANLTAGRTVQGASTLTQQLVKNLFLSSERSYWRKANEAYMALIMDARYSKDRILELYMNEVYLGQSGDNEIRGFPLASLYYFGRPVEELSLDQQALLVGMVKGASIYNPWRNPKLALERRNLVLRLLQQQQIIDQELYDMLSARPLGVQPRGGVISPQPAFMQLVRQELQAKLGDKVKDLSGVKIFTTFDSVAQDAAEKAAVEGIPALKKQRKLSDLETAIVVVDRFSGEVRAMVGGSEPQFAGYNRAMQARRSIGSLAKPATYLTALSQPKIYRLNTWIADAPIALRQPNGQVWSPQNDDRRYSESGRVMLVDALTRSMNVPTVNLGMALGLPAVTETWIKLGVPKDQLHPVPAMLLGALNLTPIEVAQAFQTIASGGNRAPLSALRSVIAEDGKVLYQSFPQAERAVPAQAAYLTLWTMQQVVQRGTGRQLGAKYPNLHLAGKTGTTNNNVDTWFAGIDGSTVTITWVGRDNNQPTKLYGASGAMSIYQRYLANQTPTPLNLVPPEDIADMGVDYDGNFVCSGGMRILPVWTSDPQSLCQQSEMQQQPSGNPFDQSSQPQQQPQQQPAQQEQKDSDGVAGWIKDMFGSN

ftsI = target: T7, ftsI (Escherichia coli, UniProt P0AD68); assay: as above; settings: crude E. coli lysate, 10 μM ampicillin, 25 °C, 30 min
T7 construct: endogenous membrane protein in crude E. coli lysate
T7 sequence (P0AD68 1-577): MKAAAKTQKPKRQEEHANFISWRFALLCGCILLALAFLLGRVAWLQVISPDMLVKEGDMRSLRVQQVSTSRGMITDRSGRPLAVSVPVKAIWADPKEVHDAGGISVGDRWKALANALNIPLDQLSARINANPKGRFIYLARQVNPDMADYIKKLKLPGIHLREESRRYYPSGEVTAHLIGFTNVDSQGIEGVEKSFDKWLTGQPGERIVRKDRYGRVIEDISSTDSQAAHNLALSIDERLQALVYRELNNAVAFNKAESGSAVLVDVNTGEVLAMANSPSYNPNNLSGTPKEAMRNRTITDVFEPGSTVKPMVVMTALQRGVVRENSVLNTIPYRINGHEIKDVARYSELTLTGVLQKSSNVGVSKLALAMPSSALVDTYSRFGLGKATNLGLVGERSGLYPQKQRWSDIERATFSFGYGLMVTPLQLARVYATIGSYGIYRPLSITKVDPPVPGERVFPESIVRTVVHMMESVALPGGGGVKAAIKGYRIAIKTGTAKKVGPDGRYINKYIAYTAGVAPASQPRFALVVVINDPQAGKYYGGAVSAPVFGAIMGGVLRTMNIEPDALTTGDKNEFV

mrcA = target: T8, mrcA (Escherichia coli, UniProt P02918); assay: as above; settings: crude E. coli lysate, 10 μM ampicillin, 25 °C, 30 min; C-terminal transpeptidase domain
T8 construct: endogenous membrane protein in crude E. coli lysate
T8 sequence (P02918 1-850): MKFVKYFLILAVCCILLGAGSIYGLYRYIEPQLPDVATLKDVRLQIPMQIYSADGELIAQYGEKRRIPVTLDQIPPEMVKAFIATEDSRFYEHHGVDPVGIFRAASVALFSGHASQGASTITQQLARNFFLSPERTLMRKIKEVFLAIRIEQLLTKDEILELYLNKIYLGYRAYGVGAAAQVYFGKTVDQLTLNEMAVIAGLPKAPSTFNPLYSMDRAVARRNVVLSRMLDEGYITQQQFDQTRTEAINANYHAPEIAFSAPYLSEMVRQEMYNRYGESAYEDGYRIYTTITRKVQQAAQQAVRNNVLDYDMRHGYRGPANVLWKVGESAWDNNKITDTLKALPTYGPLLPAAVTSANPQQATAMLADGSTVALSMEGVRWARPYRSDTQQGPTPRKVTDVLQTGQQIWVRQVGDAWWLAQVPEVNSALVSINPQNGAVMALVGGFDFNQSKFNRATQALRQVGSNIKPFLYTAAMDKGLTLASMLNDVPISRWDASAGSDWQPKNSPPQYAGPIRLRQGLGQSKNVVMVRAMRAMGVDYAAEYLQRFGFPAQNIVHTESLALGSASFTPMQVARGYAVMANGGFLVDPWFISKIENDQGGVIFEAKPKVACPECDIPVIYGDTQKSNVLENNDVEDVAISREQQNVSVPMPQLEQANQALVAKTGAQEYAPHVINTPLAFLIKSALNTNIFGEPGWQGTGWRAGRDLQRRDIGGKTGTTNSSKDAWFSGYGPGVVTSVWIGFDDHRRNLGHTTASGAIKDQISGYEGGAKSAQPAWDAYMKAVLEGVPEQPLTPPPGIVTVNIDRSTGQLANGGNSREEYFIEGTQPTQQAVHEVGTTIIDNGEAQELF

T5 sequence (P24228 21-477): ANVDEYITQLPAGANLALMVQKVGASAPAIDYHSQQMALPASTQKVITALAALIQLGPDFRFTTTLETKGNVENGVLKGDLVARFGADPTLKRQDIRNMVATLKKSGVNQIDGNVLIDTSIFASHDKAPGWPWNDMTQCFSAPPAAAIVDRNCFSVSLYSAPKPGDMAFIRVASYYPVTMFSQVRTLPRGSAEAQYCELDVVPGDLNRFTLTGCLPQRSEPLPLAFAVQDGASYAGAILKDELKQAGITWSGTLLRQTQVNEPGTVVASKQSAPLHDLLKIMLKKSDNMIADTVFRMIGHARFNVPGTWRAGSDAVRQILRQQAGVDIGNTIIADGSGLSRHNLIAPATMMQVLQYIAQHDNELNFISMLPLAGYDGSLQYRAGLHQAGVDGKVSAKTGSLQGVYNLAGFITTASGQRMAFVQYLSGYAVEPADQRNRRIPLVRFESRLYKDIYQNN
T2 sequence (Q8BRK8 whole entry): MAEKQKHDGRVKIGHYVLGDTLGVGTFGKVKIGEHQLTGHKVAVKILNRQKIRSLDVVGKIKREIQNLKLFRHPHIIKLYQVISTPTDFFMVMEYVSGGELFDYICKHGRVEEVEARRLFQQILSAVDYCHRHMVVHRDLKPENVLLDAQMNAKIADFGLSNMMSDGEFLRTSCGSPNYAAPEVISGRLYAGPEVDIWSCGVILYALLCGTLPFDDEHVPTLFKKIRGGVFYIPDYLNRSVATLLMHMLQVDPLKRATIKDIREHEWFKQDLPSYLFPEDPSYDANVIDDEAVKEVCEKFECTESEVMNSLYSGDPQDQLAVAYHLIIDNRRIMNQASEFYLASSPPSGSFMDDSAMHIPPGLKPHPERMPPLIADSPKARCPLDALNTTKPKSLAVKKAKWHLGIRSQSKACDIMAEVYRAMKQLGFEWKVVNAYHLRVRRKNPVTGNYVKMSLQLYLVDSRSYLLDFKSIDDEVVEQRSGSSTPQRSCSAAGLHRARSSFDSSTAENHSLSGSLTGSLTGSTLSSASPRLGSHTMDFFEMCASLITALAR

Nc1ncnc2c1ncn2[C@@H]1O[C@H](COP(=O)(O)OP(=O)(O)OP(=O)(O)O)[C@@H](O)[C@H]1O [ATP]
pEC50 (GuaC): Among the non-annotated ATP binders, we identify GuaC

CCN(CC)CCNC(=O)c1c(C)[nH]c(/C=C2\C(=O)Nc3ccc(F)cc32)c1C [sunitinib]
pEC50 (α subunit Prkaa2 of Ampk): the α subunit Prkaa2 of Ampk, Camk2g, Csn1ke and Csnk1g2
pEC50 (Csn1ke): the α subunit Prkaa2 of Ampk, Camk2g, Csn1ke and Csnk1g2

CC1(C)S[C@@H]2[C@H](NC(=O)[C@H](N)c3ccccc3)C(=O)N2[C@H]1C(=O)O [ampicillin]
HT-PELSA limited trypsin proteolysis MS, single concentration (pbpG): HT-PELSA identified five known targets of ampicillin (mrcA, mrcB, ftsI, dacB and pbpG
HT-PELSA limited trypsin proteolysis MS, single concentration (dacB): HT-PELSA identified five known targets of ampicillin (mrcA, mrcB, ftsI, dacB and pbpG
HT-PELSA limited trypsin proteolysis MS, single concentration (mrcB): HT-PELSA identified five known targets of ampicillin (mrcA, mrcB, ftsI, dacB and pbpG
HT-PELSA limited trypsin proteolysis MS, single concentration (ftsI): HT-PELSA identified five known targets of ampicillin (mrcA, mrcB, ftsI, dacB and pbpG
HT-PELSA limited trypsin proteolysis MS, single concentration (mrcA): HT-PELSA identified five known targets of ampicillin (mrcA, mrcB, ftsI, dacB and pbpG
